In patent US20120122903A1, “1-H-QUINAZOLINE-2, 4-DIONES FOR USE IN THE TREATMENT OF NEURONAL CEROID LIPOFUSCINOSIS” (priority 2009, published 2012):

How the values were obtained:
mouse = test: Oral activity in vivo (audiogenic mouse test and/or MES test); conditions: oral administration
Experimental: The oral bioavailability was tested using the audiogenic mouse test (Audiogenic seizures, R. L. Collins; Chapter 14, pages: 347-372. In: Experimental Models of Epilepsy; By: Pupura, Penry, Tower, Woodbury, Waiter, Raven Press, New York, 1972. Standard Book Number: 0-911216-26-X) and/or the MES test.

OF1 mice [1] = test: Murine maximal electroshock test (MES test); format: in vivo, mouse; conditions: p.o., percentage of protected mice; for MES-Test (1 h, po) % protection @ 25: printed '@ 25' (mg/kg)
OF1 mice [2] = test: Murine maximal electroshock test (MES test); format: in vivo, mouse; conditions: for ED50: Mus musculus, po, pre-treatment time 1 h
Experimental: Compounds of the invention were tested in OF1 mice using the maximal electroshock test (MES Test) described in detail by Schmutz et al., Naunyn-Schmiedeberg's Arch Pharmacol 1990, 342, 61-66. Briefly, generalized tonic-clonic convulsions of the hind extremities were induced by passing electrical current through temporal electrodes (50 Hz, 18 mA, 0.2 s). […] 30 mg/kg carbamazepine was used as a positive control; mice were classified as protected by a compound if the duration of the seizure lasted only 3 second or less. Five mice were used for each treatment condition and the percentage of protected mice was used as readout (i.e. a compound could give 0%, 20%, 40%, 60%, 80% or 100% protection). Compounds of the invention were given at a dose of 50 mg/kg, p.o., 1 hour prior to induction of convulsions (i.e. “pre-treatment time−1 h”).
ED50 values (ED: effective dose) were calculated using GraphPad Prism, v4.02.
15 s after shock administration, mouse blood was collected for determination of compounds' blood exposure.

| SMILES | In vivo orally active (mouse) | MES-Test (1 h, po) % protection @ 25 (OF1 mice [1]) | ED50 (OF1 mice [2]) [mg/kg] | MES-Test (1 h, po) % protection @ 20 (OF1 mice [1]; printed '@ 20' (mg/kg)) [% @ 20^] | MES-Test (1 h, po) % protection @ 50 (OF1 mice [2]; p.o., 1 h, percentage of protected mice, printed '@ 50' (mg/kg)) [% @ 50^] |
| --- | --- | --- | --- | --- | --- |
| COCCn1nccc1-c1cc2c(=O)n(NS(C)(=O)=O)c(=O)[nH]c2cc1C(C)C [Compound C-1, N-{7-Isopropyl-6-[2-(2-methoxy-ethyl)-2H-pyrazol-3-yl]-2,4-dioxo-1,4-dihydro-2H-quinazolin-3-yl}-methanesulfonamide] | yes | 40% @ 25^ |  |  |  |
| CCC(O)c1cc2c(=O)n(NS(C)(=O)=O)c(=O)[nH]c2cc1C(F)(F)F (centres unmarked) [Compound A-3, N-[6-(1-Hydroxy-propyl)-2,4-dioxo-7-trifluoromethyl-1,4-dihydro-2H-quinazolin-3-yl]-methanesulfonamide] | Yes |  | 19.6 |  |  |
| CS(=O)(=O)Nn1c(=O)[nH]c2cc(C(F)(F)F)c(C3CCOC3)cc2c1=O (centres unmarked) [Compound B-3, N-[2,4-Dioxo-6-(tetrahydro-furan-3-yl)-7-trifluoromethyl-1,4-dihydro-2H-quinazolin-3-yl]-methanesulfonamide] | Yes | 20% @ 25^3 |  |  |  |
| Cn1nccc1-c1cc2c(=O)n(NS(C)(=O)=O)c(=O)[nH]c2cc1C(F)(F)F [Compound C-18, N-[6-(2-Methyl-2H-pyrazol-3-yl)-2,4-dioxo-7-trifluoromethyl-1,4-dihydro-2H-quinazolin-3-yl]-methanesulfonamide] | Yes |  | 14.8 |  |  |
| CCOC(C)c1cc2c(=O)n(NS(C)(=O)=O)c(=O)[nH]c2cc1C(F)(F)F (centres unmarked) [Compound A-5, N-[6-(1-Ethoxy-ethyl)-2,4-dioxo-7-trifluoromethyl-1,4-dihydro-2H-quinazolin-3-yl]-methanesulfonamide] | Yes |  | 8.8 |  |  |
| CCc1cc2[nH]c(=O)n(NS(C)(=O)=O)c(=O)c2cc1-c1ccnn1CC [Compound C-12, N-[7-Ethyl-6-(2-ethyl-2H-pyrazol-3-yl)-2,4-dioxo-1,4-dihydro-2H-quinazolin-3-yl]-methanesulfonamide] | Yes |  | 42.8 |  |  |
| CC(C)n1nccc1-c1cc2c(=O)n(NS(C)(=O)=O)c(=O)[nH]c2cc1C(F)(F)F [Compound C-2, N-[6-(2-Isopropyl-2H-pyrazol-3-yl)-2,4-dioxo-7-trifluoromethyl-1,4-dihydro-2H-quinazolin-3-yl]-methanesulfonamide] | Yes |  | 17.7 |  |  |
| COC(C)c1cc2c(=O)n(NS(C)(=O)=O)c(=O)[nH]c2cc1C(F)(F)F (centres unmarked) [Compound A-2, N-[6-(1-Methoxy-ethyl)-2,4-dioxo-7-trifluoromethyl-1,4-dihydro-2H-quinazolin-3-yl]-methanesulfonamide] | Yes |  | 6 |  |  |
| Cn1nccc1-c1cc2c(=O)n(NS(C)(=O)=O)c(=O)[nH]c2cc1C(C)(F)F [Compound C-15, N-[7-(1,1-difluoro-ethyl)-6-(2-methyl-2H-pyrazol-3-yl)-2,4-dioxo-1,4-dihydro-2H-quinazolin-3-yl]-methanesulfonamide] | Yes |  |  | 80 |  |
| CC(C)OC(C)c1cc2c(=O)n(NS(C)(=O)=O)c(=O)[nH]c2cc1C(F)(F)F (centres unmarked) [Compound A-4, N-[6-(1-Isopropoxy-ethyl)-2,4-dioxo-7-trifluoromethyl-1,4-dihydro-2H-quinazolin-3-yl]-methanesulfonamide] | Yes |  | 15.6 |  |  |
| Cn1nccc1-c1cc2c(=O)n(NS(C)(=O)=O)c(=O)[nH]c2cc1C(F)F [Compound C-9, N-[7-Difluoromethyl-6-(2-methyl-2H-pyrazol-3-yl)-2,4-dioxo-1,4-dihydro-2H-quinazolin-3-yl]-methanesulfonamide] | Yes |  | 7.5 |  |  |
| CC(C)c1cc2[nH]c(=O)n(NS(C)(=O)=O)c(=O)c2cc1-c1ccnn1C [Compound C-7, N-[7-Isopropyl-6-(2-methyl-2H-pyrazol-3-yl)-2,4-dioxo-1,4-dihydro-2H-quinazolin-3-yl]-methanesulfonamide] | Yes |  | 6.9 |  |  |
| CC(F)c1cc2[nH]c(=O)n(NS(C)(=O)=O)c(=O)c2cc1-c1ccnn1C(C)C (centres unmarked) [Compound C-17, N-[7-(1-fluoro-ethyl)-6-(2-isopropyl-2H-pyrazol-3-yl)-2,4-dioxo-1,4-dihydro-2H-quinazolin-3-yl]-methanesulfonamide] | Yes |  | > 20 |  |  |
| CC(C)n1nccc1-c1cc2c(=O)n(NS(C)(=O)=O)c(=O)[nH]c2cc1C(F)F [Compound C-10, N-[7-Difluoromethyl-6-(2-isopropyl-2H-pyrazol-3-yl)-2,4-dioxo-1,4-dihydro-2H-quinazolin-3-yl]-methanesulfonamide] | Yes |  | 20.3 |  |  |
| CCCC(O)c1cc2c(=O)n(NS(C)(=O)=O)c(=O)[nH]c2cc1C(F)(F)F (centres unmarked) [Compound A-15, N-[6-(1-Hydroxy-butyl)-2,4-dioxo-7-trifluoromethyl-1,4-dihydro-2H-quinazolin-3-yl]-methanesulfonamide] | Yes |  | 35 |  |  |
| Cn1nncc1-c1cc2c(=O)n(NS(C)(=O)=O)c(=O)[nH]c2cc1C(F)(F)F [Comparative, N-(6-(1-methyl-1H-1,2,3-triazol-5-yl)-2,4-dioxo-7-trifluoromethyl-1,4-dihydro-2H-quinazolin-3-yl]-methanesulfonamide, reference compound] | No |  |  |  | 0 |
